# Source: ChEMBL document CHEMBL1201862, “PubChem BioAssay data set” (2004)
# Calls of active or inactive are those of the source.
# Key:
# [1] = biological target: T1, Microphthalmia-associated transcription factor (Homo sapiens, UniProt O75030); experiment: reducers of TRPM1 reporter luminescence, concentration series – cell-based, SK-MEL-5, cherry-picked, set 3, MITF inhibitor project, dose response (AID 493073); format: functional;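 also: SK-MEL-5 melanoma cells with luciferase driven by the MITF target TRPM1 promoter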
# T1 sequence (O75030 whole entry): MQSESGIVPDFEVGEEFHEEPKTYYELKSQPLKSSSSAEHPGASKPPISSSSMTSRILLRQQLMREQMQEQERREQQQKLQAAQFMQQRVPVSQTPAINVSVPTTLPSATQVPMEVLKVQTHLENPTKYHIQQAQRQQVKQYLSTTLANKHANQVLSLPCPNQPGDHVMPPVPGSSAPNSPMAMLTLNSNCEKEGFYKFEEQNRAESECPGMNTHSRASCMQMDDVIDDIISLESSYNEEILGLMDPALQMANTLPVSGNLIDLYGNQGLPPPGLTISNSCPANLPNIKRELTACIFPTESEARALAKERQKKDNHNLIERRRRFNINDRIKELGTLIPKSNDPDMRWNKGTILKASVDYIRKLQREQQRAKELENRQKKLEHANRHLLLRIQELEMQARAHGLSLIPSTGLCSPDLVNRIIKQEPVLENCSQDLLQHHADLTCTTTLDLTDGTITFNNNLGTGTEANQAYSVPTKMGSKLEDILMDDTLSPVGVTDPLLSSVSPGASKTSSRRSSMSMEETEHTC
# [2] = general mammalian cell viability loss – inhibitor set, cherry-pick, set 2, cytotoxicity control for miR-122 modulator project, dose response (AID 720697); format: functional, cell-based
# [3] = Luminescence Cell-Based Dose Retest to Confirm Inhibitors of Cancer Stem Cells. [Related pubchem assays (depositor defined):AID2717, AID2721]; format: functional; details: Homo sapiens
# [4] = general mammalian cell viability loss – activator set, cherry-pick, cytotoxicity control for miR-122 modulator project, dose response (AID 720690); format: functional, cell-based;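 also: HEK293T human cells scored for general mammalian cytotoxicity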
# Caspase-6 = biological target: T2, Caspase-6 (Homo sapiens, UniProt P55212); experiment: inhibition of CASP6 peptide cleavage – biochemical, VEID-R110 fluorescence, cherry-pick, dose response (AID 720632)
# T2 sequence (P55212 whole entry): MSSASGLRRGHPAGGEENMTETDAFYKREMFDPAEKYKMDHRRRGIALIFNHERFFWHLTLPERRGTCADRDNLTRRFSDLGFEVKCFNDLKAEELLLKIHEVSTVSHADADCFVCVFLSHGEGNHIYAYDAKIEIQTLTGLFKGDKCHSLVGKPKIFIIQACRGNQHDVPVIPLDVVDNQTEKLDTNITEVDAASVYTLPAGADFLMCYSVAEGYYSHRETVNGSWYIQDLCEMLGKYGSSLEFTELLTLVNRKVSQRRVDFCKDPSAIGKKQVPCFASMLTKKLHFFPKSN
# Paired box protein Pax-8 = Paired box protein Pax-8 (Homo sapiens, UniProt Q06710); experiment: PAX8 transcriptional activity inhibition in RMG-I – RMG-I cells, luciferase, cherry-pick, dose response (AID 687027); format: functional, cell-based;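 also: luciferase reporter driven by Pax8 target thyroperoxidase promoter measured by SteadyGlo luminescence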
# Paired box protein Pax-8, sequence (Q06710 whole entry): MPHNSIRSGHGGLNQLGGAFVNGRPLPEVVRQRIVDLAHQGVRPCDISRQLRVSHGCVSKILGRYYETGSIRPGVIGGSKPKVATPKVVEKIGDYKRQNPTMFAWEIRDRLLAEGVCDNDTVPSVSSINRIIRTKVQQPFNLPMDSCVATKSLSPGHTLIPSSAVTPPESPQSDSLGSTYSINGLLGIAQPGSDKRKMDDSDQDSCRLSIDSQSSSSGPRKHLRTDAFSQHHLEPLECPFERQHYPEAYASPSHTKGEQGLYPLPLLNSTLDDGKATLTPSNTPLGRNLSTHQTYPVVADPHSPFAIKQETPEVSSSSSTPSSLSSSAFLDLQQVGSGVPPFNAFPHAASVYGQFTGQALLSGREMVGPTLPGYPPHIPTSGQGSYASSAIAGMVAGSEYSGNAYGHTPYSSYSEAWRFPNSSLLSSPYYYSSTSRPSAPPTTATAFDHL
# [5] = activation of miR-122 Renilla sensor silencing – cell-based, Huh7 psiCHECK-miR122, Renilla luciferase, cherry-picked, dose response (AID 651956); format: functional;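 also: huh7 hepatoma cells stably carrying a psiCHECK-2 miR-122 sensor plasmid; renilla luciferase signal reporting endogenous miR-122 activity after 48 h compound exposure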
# [6] = Fluorescence-based cell-based high throughput dose response assay for inhibitors of the interaction of nucleotide-binding oligomerization domain containing 2 (NOD2) and the receptor-interacting serine-threonine kinase 2 (RIPK2).; format: functional; details: Homo sapiens
# [7] = biological target: T3, Low molecular weight phosphotyrosine protein phosphatase (Homo sapiens, UniProt P24666); format: functional; details: read-out: IC50_Mean
# T3 sequence (P24666 whole entry): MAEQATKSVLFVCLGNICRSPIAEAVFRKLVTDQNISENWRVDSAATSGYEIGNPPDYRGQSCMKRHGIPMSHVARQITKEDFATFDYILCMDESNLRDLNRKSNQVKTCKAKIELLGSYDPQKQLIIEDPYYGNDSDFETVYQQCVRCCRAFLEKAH
# [8] = biological target: T3, Low molecular weight phosphotyrosine protein phosphatase; format: functional; details: read-out: IC50_Mean; remark: listed apart in the source
# [9] = biological target: T4, Apoptotic protease-activating factor 1 (Homo sapiens, UniProt O14727); experiment: SAR analysis of small molecule Activators of Apaf-1 in a Fluorescent assay.; format: functional; details: read-out: EC50_Mean;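 also: caspase-3 cleavage of fluorogenic Rh110 DEVD substrate downstream of apoptosome activation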
# T4 sequence (O14727 whole entry): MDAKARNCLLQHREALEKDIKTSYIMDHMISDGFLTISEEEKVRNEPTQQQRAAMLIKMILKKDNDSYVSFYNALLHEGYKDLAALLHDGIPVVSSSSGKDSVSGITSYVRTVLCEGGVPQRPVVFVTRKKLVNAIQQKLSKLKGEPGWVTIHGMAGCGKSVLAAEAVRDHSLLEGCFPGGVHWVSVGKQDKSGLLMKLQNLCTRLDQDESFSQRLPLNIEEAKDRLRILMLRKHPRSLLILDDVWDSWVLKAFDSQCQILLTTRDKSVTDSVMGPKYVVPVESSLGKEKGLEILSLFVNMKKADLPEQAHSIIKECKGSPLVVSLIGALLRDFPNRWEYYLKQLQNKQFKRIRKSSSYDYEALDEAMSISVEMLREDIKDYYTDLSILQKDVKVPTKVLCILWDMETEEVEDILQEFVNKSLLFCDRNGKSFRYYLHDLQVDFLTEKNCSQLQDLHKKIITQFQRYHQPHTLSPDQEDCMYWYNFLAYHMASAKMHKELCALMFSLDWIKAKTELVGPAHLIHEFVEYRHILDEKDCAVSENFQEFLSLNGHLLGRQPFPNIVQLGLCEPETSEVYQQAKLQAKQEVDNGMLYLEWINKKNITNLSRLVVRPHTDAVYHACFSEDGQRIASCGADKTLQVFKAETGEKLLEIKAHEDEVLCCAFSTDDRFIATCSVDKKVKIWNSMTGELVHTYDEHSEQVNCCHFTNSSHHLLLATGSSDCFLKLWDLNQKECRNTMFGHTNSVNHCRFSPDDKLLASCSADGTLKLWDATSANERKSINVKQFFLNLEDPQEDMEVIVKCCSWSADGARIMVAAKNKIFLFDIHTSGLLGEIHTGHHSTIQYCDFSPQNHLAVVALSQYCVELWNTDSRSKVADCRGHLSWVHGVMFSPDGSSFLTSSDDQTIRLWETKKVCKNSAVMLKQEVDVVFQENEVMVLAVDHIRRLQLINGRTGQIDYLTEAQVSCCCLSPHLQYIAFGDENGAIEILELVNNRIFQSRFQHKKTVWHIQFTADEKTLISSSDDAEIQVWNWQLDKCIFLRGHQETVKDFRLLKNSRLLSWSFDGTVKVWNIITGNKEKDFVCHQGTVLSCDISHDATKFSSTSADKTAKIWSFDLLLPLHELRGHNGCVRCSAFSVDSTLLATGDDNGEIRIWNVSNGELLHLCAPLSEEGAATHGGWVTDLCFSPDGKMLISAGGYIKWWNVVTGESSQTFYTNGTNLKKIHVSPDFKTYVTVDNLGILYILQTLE
# [10] = blockers of CRF-binding protein–CRF-R2 complex – cell-based, uHTS hits, 384-well, dose response (AID 651639); format: functional, Homo sapiens; details: read-out: IC50_Mean
# [11] = biological target: Photoreceptor-specific nuclear receptor (Homo sapiens, UniProt Q9Y5X4); format: functional, cell-based;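 also: CHO-S cells with Gal4-NCOR and VP16-NR2E3 two-hybrid luciferase reporter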
# Photoreceptor-specific nuclear receptor, sequence (Q9Y5X4 whole entry, the tested form may be a part): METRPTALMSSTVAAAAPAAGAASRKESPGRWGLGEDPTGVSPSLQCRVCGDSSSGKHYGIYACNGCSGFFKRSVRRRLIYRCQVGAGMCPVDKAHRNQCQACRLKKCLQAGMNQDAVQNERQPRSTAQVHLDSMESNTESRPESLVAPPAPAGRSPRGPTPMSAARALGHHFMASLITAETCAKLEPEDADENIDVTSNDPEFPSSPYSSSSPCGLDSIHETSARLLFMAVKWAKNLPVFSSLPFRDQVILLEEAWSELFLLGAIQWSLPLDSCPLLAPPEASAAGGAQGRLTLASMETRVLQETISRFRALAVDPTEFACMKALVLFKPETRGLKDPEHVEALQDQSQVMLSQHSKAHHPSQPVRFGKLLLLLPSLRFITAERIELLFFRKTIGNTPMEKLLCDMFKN
# [12] = biological target: T5, Corticotropin-releasing factor receptor 2/Corticotropin-releasing factor-binding protein (Homo sapiens, UniProt P24387+Q13324); experiment: Dose Response confirmation of uHTS hits for small molecule antagonists of the CRF-binding protein and CRF-R2 receptor complex.; format: functional; details: read-out: IC50_Mean
# T5 sequence (Q13324 whole entry): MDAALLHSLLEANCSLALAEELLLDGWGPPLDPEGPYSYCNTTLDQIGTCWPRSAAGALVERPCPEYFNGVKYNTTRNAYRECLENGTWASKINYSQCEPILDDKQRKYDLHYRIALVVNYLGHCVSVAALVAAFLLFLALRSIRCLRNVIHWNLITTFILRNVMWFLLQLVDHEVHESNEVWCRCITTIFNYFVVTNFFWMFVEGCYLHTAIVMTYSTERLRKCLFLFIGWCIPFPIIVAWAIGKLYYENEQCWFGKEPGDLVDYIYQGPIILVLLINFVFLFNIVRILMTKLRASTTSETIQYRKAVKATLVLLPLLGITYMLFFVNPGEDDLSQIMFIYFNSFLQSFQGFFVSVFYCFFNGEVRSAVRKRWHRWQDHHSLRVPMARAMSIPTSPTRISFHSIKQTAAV
# T5 sequence (P24387 whole entry): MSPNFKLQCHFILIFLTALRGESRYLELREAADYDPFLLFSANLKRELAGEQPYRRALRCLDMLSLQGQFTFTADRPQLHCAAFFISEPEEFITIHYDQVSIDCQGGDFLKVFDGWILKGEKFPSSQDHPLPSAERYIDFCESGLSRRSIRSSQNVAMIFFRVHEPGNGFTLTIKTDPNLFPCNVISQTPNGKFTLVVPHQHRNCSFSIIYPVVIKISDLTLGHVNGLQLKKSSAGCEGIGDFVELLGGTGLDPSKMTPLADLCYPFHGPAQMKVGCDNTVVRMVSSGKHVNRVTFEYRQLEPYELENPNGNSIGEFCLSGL
# Leucine aminopeptidase = biological target: T6, Leucine aminopeptidase (Plasmodium falciparum 3D7, UniProt Q8IL11); experiment: P. falciparum M17LAP inhibitors, primary screen, biochemical, fluorogenic H-Leu-NHMec substrate, 1536-well (AID 1619); format: functional
# T6 sequence (Q8IL11 whole entry): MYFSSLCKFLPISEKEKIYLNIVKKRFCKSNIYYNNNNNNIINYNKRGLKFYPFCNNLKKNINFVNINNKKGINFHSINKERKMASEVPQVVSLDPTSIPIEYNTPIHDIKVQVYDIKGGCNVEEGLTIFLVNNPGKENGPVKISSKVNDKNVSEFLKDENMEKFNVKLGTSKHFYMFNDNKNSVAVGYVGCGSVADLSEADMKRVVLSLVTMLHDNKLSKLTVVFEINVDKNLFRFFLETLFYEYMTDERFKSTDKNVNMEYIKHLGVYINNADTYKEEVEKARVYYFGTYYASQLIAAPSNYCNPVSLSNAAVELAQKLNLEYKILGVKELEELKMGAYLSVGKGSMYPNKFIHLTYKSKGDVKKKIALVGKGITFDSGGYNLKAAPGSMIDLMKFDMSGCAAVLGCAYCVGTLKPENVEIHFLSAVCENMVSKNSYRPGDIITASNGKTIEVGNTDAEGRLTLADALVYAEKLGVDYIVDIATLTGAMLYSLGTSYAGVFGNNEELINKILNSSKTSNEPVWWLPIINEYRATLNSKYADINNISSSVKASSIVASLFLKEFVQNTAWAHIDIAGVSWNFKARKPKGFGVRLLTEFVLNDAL
# [13] = biological target: T5, Corticotropin-releasing factor receptor 2/Corticotropin-releasing factor-binding protein; experiment: activators of CRF receptor 2 with binding protein – uHTS hits, confirmation (AID 602473); format: functional; details: read-out: EC50_Mean
# [14] = reduction of Shn3 3'UTR-driven luciferase in osteoblasts – cell-based, Clone20 osteoblasts, firefly luciferase, cherry-picked, dose response (AID 624132); format: functional;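 also: firefly luciferase luminescence from reporter carrying the Shn3 3'UTR in osteoblasts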
# [15] = non-specific 3'UTR reporter inhibition in Clone20-Shn3RL – cell-based, Renilla luciferase, cherry-picked, counter-screen for Shn3 inhibitor project, dose response (AID 624133); format: functional
# [16] = loss of viability in HepG2 cells – cell-based, CellTiter-Glo, cherry-picked, cytotoxicity control for Shn3 inhibitor project, dose response (AID 624134); format: functional
# [17] = biological target: Adenosylmethionine-8-amino-7-oxononanoate aminotransferase (Mycobacterium tuberculosis, UniProt P9WQ81); experiment: Mycobacterium tuberculosis BioA enzyme inhibitor Measured in Biochemical System Using Plate Reader - 2163-02_Inhibitor_Dose_CherryPick_Activity.; format: functional, Mycobacterium tuberculosis UT205
# Adenosylmethionine-8-amino-7-oxononanoate aminotransferase, sequence (P9WQ81 whole entry): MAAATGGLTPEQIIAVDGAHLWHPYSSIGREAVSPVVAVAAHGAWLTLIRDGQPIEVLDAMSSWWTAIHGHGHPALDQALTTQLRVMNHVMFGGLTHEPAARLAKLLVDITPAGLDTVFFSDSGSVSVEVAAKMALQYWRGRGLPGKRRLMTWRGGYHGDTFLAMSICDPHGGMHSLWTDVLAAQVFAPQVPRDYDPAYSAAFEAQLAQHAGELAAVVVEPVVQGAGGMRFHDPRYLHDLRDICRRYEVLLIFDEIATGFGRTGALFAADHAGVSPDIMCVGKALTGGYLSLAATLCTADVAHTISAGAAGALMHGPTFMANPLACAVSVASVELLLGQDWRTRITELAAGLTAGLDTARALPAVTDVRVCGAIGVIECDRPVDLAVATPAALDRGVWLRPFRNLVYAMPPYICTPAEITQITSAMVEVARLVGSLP
smiles,measurement,setting,value
Cc1ccc(NC(=O)CN(C)C(=O)Cn2ncc(Cl)c(Cl)c2=O)cc1,AC50,[1],9.16 µM (active)
same,AC50,[2],8.04 µM (active)
same,AC50,[3],4.54 µM (active)
same,AC50,[4],3.57 µM (active)
same,AC50,Caspase-6,5.9 µM (active)
same,AC50,Paired box protein Pax-8,3.57 µM (active)
same,AC50,[5],4.2 µM (active)
same,IC50,[6],4.34 µM (active)
O=C(CN1CCN(c2ccccc2F)CC1)c1ccc2cc[nH]c2c1,IC50,[7],5.49 µM (active)
same,IC50,[8],14.6 µM (active)
N[C@@H](CCc1ccccc1)C(=O)O [HOMOPHENYLALANINE],EC50,[9],> 100 µM (inactive)
Cc1ccc(S(=O)(=O)N(CC(=O)Nc2ccccc2C(=O)O)c2cccc(Cl)c2C)cc1,IC50,[10],15.6 µM (active)
same,IC50,[11],2.15 µM (active)
same,IC50,[12],41.1 µM (active)
same,IC50,Leucine aminopeptidase,24.7 µM (active)
same,EC50,[13],41.2 µM (active)
CC(C)(C)NCC(=Cc1ccccc1)C(=O)c1ccccc1,IC50,[11],2.91 µM (active)
same,AC50,[14],4.51 µM (active)
same,AC50,[15],6.44 µM (active)
same,AC50,[16],11.1 µM (active)
same,IC50,[6],10.4 µM (inactive)
Cc1c(OC(C)C(=O)NCc2ccccn2)ccc2c3c(c(=O)oc12)CCC3 (configuration not stated),AC50,[17],6.05 µM (active)
